Experimental data reported in patent US5883257A, “N-piperidinyl- and N-tetrahydropyridinyl-2-anthracenecarboxamides: dopamine receptor subtype specific ligands” (Neurogen Corporation, priority 1997, dated 1999).
Counter-ions that a name gives are not always drawn.

Assays:
dopamine D3 receptor = dopamine D3 receptor (Chlorocebus aethiops, UniProt P52703); experiment: D3 receptor binding assay (displacement of 3H-YM 09151-2); set-up: species or system African Green monkey; conditions: 0.5 nM 3H-YM 09151-2; COS cells with recombinant D3 receptors; 0.05M Tris HCl, 100 mM NaCl; nonspecific: 1 mM spiperone
dopamine D3 receptor, sequence (P52703 whole entry): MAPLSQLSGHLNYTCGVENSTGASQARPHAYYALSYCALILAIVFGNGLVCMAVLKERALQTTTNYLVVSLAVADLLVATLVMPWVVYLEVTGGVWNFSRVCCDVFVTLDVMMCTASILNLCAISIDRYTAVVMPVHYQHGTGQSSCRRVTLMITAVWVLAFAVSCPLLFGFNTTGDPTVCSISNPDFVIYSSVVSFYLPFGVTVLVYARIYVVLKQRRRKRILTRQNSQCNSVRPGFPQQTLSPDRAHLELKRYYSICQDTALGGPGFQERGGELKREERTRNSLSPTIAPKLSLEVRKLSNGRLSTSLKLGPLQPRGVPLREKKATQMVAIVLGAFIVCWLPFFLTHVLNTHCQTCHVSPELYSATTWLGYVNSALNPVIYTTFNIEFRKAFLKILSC

dopamine D2 receptor = dopamine D2 receptor (Chlorocebus aethiops, UniProt P52702); experiment: D2 receptor binding assay (displacement of 3H-YM 09151-2); set-up: species or system African Green monkey; conditions: 0.5 nM 3H-YM 09151-2; COS cells with recombinant D2 receptors; 0.05M Tris HCl, 100 mM NaCl; nonspecific: 1 mM spiperone
dopamine D2 receptor, sequence (P52702 whole entry): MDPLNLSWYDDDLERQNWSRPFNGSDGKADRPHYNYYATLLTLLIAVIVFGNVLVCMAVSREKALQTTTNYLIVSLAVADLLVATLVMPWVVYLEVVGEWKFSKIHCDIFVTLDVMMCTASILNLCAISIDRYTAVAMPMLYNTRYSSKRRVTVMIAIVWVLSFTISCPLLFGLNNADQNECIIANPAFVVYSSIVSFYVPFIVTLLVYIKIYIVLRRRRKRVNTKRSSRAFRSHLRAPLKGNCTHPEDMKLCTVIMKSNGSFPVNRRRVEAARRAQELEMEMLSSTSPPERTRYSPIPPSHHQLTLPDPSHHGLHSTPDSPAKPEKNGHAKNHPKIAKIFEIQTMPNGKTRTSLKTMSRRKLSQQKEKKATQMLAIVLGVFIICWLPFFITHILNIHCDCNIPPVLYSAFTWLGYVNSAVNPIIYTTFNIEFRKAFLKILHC

Ki (dopamine D3 receptor) [nM]	Ki (dopamine D2 receptor) [nM]	Structure (SMILES)
1.2	550	O=C(NCCCCN1CCN(c2cccc3ccccc23)CC1)c1ccc2cc3ccccc3cc2c1 [Compound 2, N-{4-[4-(1-Naphthyl)-1-piperazinyl]butyl}-2-anthracenecarboxamide hydrochloride]
7	1090	O=C(NCCCCN1CCN(c2cccc(Cl)c2Cl)CC1)c1ccc2cc3ccccc3cc2c1 [Compound 1, N-{4-[4-(2,3-Dichlorophenyl)-1-piperazinyl]butyl}-2-anthracenecarboxamide]
